{"source": "patent US20210196789A1", "about": "“HEPARIN-BINDING DOMAIN OF IGFBP-2 IN THE TREATMENT OF METABOLIC DISORDERS” (AMOLYT PHARMA, priority 2018, published 2021)", "key": {"[1]": {"tested_on": "C2C12 mouse skeletal muscle myotubes", "test": "3H-2-deoxyglucose uptake by fully differentiated C2C12 myotubes", "assay_type": "cell-based", "method": "The studies were performed using cultured, fully differentiated C2C12 mouse skeletal muscle myotubes. The cells were prepared by growing C2C12 cells to confluent density in DMEM with 25 mM glucose and 10% fetal bovine serum in 24 well plates. At this time, the medium was changed to differentiation medium (DMEM with 25 mM glucose and 2% horse serum) for 6 days with medium changed every third day. The various treatments were diluted in serum-free medium and, after washing the cells with serum-free medium, were added to the cells and incubated for 2 hours or alternative times, depending on the treatment. At the end of incubation period, the media was removed and 1.0 ml of glucose-free Krebs ringer bicarbonate buffer (pH 7.4), containing the same treatments, was added and incubation continued for 10 minutes. At the end of the 10 min incubation period, ^3H-2-deoxyglucose ([…]) (specific activity=8 Ci/mmole) was added directly to all wells, and the incubation continued for an additional 10 min. The wells were then rinsed three times with ice cold phosphate buffered saline, the cells were extracted with 0.5 N NaOH, and the ^3H-2-deoxyglucose content of the cell lysate quantitated by scintillation counting."}, "AMPK": {"tested_on": "AMPK", "test": "AMPK phosphorylation (pT172 immunoblot) in C2C12 myotubes", "assay_type": "cell-based, mouse", "method": "(§1) For signaling studies the cells were prepared the same way except 6-well plates were used. After 6 days incubation in differentiating medium, the cells were washed with serum-free medium. The various treatments were then added in serum free medium containing 0.1% BSA. HBD1 peptides were added and incubated for 8 hours. When utilizing IGF-I, incubation was for 15 minutes after IGF-1 addition. Following incubation the cells were lysed in RIPA buffer and sonicated. The cell lysate was centrifuged and the supernatant analyzed for either Akt or AMPK by SDS PAGE using a 10% gel followed by immunoblotting with the appropriate antibody.\nTo examine further the intracellular transduction pathways utilized by the HBD1 peptides, following treatment with HBD1 peptide SEQ ID NO: 73 (C18:0-HLGLEEPKK), cell lysate proteins, were separated by SDS PAGE and immunoblotted with anti-pAMPK T172."}, "[2]": {"tested_on": "glucose telemetered ob/ob mice", "test": "Basal blood glucose and IPGTT in glucose-telemetered ob/ob mice, 28 days of twice daily treatment", "assay_type": "in vivo, mouse", "settings": "for glucose intolerance: glucose telemetered ob/ob mice, 1 and 3 mg/kg s.c. twice daily, 27-28 days, vs vehicle", "method": "To further assess the effects of HBD1 peptides on glucose and insulin metabolisms, basal blood glucose and glucose response to an intraperitoneal glucose tolerance test (IPGTT) were assessed in glucose-telemetered obese ob/ob mice after twice daily administration of HBD peptides for 28 consecutive days. Implantation of glucose telemetry device (HD-XG, Data Science International) was carried out according to known protocols.\nA dose of HBD peptide fragment of SEQ ID NO: 73 (C18:0-HLGLEEPKK) was administered twice daily at 8-hour±1 hour interval between the two daily administrations. 24 V-Lepob/J (Ob/Ob) male mice (The Jackson Laboratory, Farmington, Conn. USA) were administered subcutaneously with vehicle (NaCl 0.9%) (Control group) or with the peptide at 1 and 3 mg/kg (Test groups) (n=5-8 animals for each group) twice daily for 28 days. The first day of dosing was designated as Day 1. Bolus injection was carried out using a sterile syringe and the needle was introduced subcutaneously, 2 to 4 injection sites were used in rotation. The hair of the animals on the injection area was clipped prior to the first injection and then as necessary during the treatment period. The volume administered was 5 mL/kg/administration. Individual dose volumes were calculated using the latest body weight. On day 27, 16-hour mean blood glucose levels were assessed in normal fed conditions. On day 28, fasted (4 hours) mice were injected intraperitoneally with glucose at 1 g/kg. Plasma blood glucose profile (expressed as mg/dL) was recorded every minute up to 3-hour post glucose injection.\nIntraperitoneal glucose tolerance test (IPGTT)—On the morning of the IGPTT day (day 28), 2-hour fasted animals were treated with vehicle or with the HBD fragment. Glucose solution was administered 2 hours±15 minutes post-dosing (vehicle or a peptide as set forth in SEQ ID NO: 73 (C18:0-HLGLEEPKK). Blood glucose was monitored from 10 minutes before (fasting condition) to 3-hour post-glucose challenge. Food was re-introduced 4 hours post-glucose challenge. The second treatment of the day (the HBD fragment or vehicle) was performed 2 hours after food re-introduction."}, "3T3-LI adipocytes": {"tested_on": "3T3-LI adipocytes", "test": "[3H]-2-deoxyglucose uptake by fully differentiated 3T3-LI adipocytes", "assay_type": "cell-based, mouse", "settings": "3 μg/ml for 24 hours", "method": "3T3-LI cells are a mouse fibroblast cell line which when cultured under specific conditions, differentiate into adipocytes.\nDifferentiation of 3T3-LI cells into adipocytes was achieved using the following protocol. 3T3-L1 cells were seeded in 24-well plates and cultured in 3T3-L1 maintenance medium (DMEM containing 10% fetal bovine serum, 4 mM L-glutamine 1 mM, sodium pyruvate) until the cells were 100% confluent. The cells were then fed with 3T3-L1 maintenance medium and cultured for a further 48 h. To initiate differentiation into adipocytes, the medium was changed to Differentiation medium 1 (DMEM containing 10% fetal bovine serum, 4 mM L-glutamine, 1 mM sodium pyruvate, 0.5 mM IBMX, […]), and cultured for a further 2 days. The medium was then changed to Differentiation medium 2 (DMEM containing 10% fetal bovine serum, 4 mM L-glutamine, 1 mM sodium pyruvate, 1 mg/ml insulin), and cultured for a further 2 days. The medium was then changed to Adipocyte Maintenance medium (DMEM containing 10% fetal bovine serum, 4 mM L-glutamine, 1 mM sodium pyruvate), and cultured for a further 7 days. During this time, the medium was changed every other day. The now fully differentiated adipocytes were utilized for glucose uptake experiments (day 11 from initiation of differentiation). Stock solutions of the HBD1 peptides to be tested were prepared by dilution with 0.9% NaCl solution under sterile conditions in a laminar flow cabinet to a concentration of 1 mg/ml, based on net peptide content. The solutions were homogenized by gentle inversion. Test items were prepared from the stock solutions, and remaining stock solution was aliquoted and stored at −20° C. and used without repeated freeze-thaw cycles.\nGlucose uptake experiments were carried our using the following protocol. Prior to beginning the experiment, 100 ml of Krebs Ringer bicarbonate buffer (KRBB)(25 mM Hepes pH 7.4, 118 mM NaCl, 5 mM NaHCO3, 4.7 mM KCl, 1.2 mM KH2PO4, 1.2 mM MgSO4, 2.5 mM CaCl2, 0.2% BSA—Filtered using a 0.2 μm filter) and 100 ml of Incubation medium (DMEM containing 4 mM L-glutamine, 1 mM sodium pyruvate, 1% penicillin streptomycin, 0.2% BSA—Filtered using a 0.2 μm filter) were pre-warmed to 37° C., and 500 ml of KRBB was chilled on ice. Stock solutions of test compounds were diluted to 3 μg/ml final concentrations in pre-warmed Incubation medium and in pre-warmed KRBB. Insulin (positive control), previously diluted 1:1000 in sterile 0.9% NaCl, was further diluted in 10 ml of both medium and buffer to a final concentration of 1 nM. All traces of the medium were carefully removed from the cells using a fine tip. 1 ml of incubation medium containing study compounds or vehicle was added to the appropriate wells. No insulin was added at this time. […]"}, "[3]": {"tested_on": "B6.V-Lepob/J mice (ob/ob)", "test": "Intraperitoneal glucose tolerance test in ob/ob mice after 15 days of twice daily treatment", "assay_type": "in vivo, mouse", "settings": "3 mg/kg s.c. twice daily for 15 days, 45 min after 1 g/kg i.p. glucose, vs vehicle", "method": "After being acclimatized 7 days to the laboratory conditions, nine-week-old male B6.V-Lepob/J. mice (Charles River) were subcutaneously administered with vehicle (NaCl 0.9%) or with a peptide as set forth in SEQ ID NO: 73 (C18:0-HLGLEEPKK) at 3 mg/kg (n=5 animals for each group) twice daily for 15 days. On day 15, fasted (overnight) mice were injected intraperitoneally with glucose at 1 g/kg. Plasma blood glucose (expressed as mmol/L) was recorded at 45 minutes post glucose injection."}, "Akt": {"tested_on": "Akt", "test": "Akt phosphorylation (pS473 immunoblot) in C2C12 myotubes", "assay_type": "cell-based, mouse", "settings": "8 hours incubation (FIG. 6)", "method": "as §1\nTo examine the intracellular transduction pathways utilized by the HBD1 peptides, following treatment with HBD1 peptide SEQ ID NO: 73 (C18:0-HLGLEEPKK), cell lysate proteins were separated by SDS PAGE and immunoblotted with anti-Akt pS473 antibodies."}, "mice": {"tested_on": "mice", "settings": "mice (Xi, 2013); cited from earlier work"}, "[4]": {"settings": "listed as acylated HBD1 (3-11) fragment"}}, "note": "Entries after “also recorded” stand apart in the source; their conditions may differ. No end group written: not given here. *: point of attachment. Stearoyl = CCCCCCCCCCCCCCCCCC(=O)*", "data": [{"compound": "c1cc(-c2cnn3cc(-c4ccc(OCCN5CCCCC5)cc4)cnc23)ccn1", "note": "[Compound C, reference compound]", "values": [{"measurement": "effect on SEQ ID NO: 73-stimulated glucose uptake", "setting": "[1]; C2C12 myotubes, SEQ ID NO: 73 alone or together with insulin (FIG. 8)", "value": "completely abolished; also recorded: prevented"}, {"measurement": "effect on SEQ ID NO: 73-induced AMPK phosphorylation", "setting": "AMPK; C2C12 myotubes treated with SEQ ID NO: 73 (FIG. 7)", "value": "completely abolished; also recorded: prevented"}]}, {"compound": "C18:0-HLGLEEPKK (Stearoyl-HLGLEEPKK) [SEQ ID NO: 73]", "values": [{"measurement": "effect on fasting glucose and glucose excursion at the high dose", "setting": "[2]; 3 mg/kg, after 4 weeks", "value": "marked effect"}, {"measurement": "glucose excursion following IPGTT", "setting": "[2]; after 4 weeks of administration, 3-hour profile after 1 g/kg i.p. glucose", "value": "decreased"}, {"measurement": "fasting glucose levels", "setting": "[2]; after 4 weeks of administration, 10 min prior to IPGTT", "value": "decreased fasting glucose levels"}, {"measurement": "16-hour average blood glucose levels", "setting": "[2]; day 27, normal fed conditions", "value": "markedly decrease 16-hour average blood glucose levels"}, {"measurement": "glucose intolerance", "setting": "[2]", "value": "improved glucose intolerance in a dose-dependent manner"}, {"measurement": "glucose intolerance", "setting": "[2]; [4]", "value": "improves glucose intolerance"}, {"measurement": "glucose uptake by C2C12 myotubes with insulin, separate experiment", "setting": "[1]; 1.5 μM together with insulin (FIG. 8)", "value": "act additively with insulin; also recorded: in an additive manner with insulin"}, {"measurement": "glucose uptake by C2C12 myotubes, separate experiment", "setting": "[1]; 1.5 μM, alone (FIG. 8)", "value": "increased glucose uptake"}, {"measurement": "glucose uptake by C2C12 myotubes", "setting": "[1]; 0.8, 1.5, 2.3 μM, 1.5 μM for 2, 4, 16 hours, vs vehicle-treated controls (FIGS. 5A-5B)", "value": "stimulated increased glucose uptake as compared with vehicle-treated controls in both a dose- and time-dependent manner; also recorded: dose-dependent (FIG. 5A) and time-dependent (FIG. 5B) increases in glucose uptake"}, {"measurement": "glucose uptake by C2C12 myotubes in combination with insulin", "setting": "[1]; in combination with insulin (FIG. 5C)", "value": "additive increase in glucose uptake"}, {"measurement": "glucose uptake by 3T3-LI adipocytes", "setting": "3T3-LI adipocytes", "value": "stimulated increased glucose uptake"}, {"measurement": "phosphorylated AMPK", "setting": "AMPK; C2C12 myotubes, 8 hours incubation (FIG. 7)", "value": "dose-dependent increase in phosphorylated AMPK; also recorded: dose-dependent phosphorylation (activation) of the AMPK pathway"}, {"measurement": "plasma glucose levels in response to the IP glucose tolerance test", "setting": "[3]", "value": "reduced the plasma glucose levels"}, {"measurement": "plasma glucose levels in response to the IP glucose tolerance test", "setting": "[3]; [4]", "value": "improves glucose intolerance"}, {"measurement": "phosphorylated Akt", "setting": "Akt", "value": "dose-related increase in phosphorylated Akt; also recorded: dose-dependent phosphorylation (activation) of the Akt pathway"}]}, {"compound": "HHLGLEEPKK [SEQ ID NO: 16]", "values": [{"measurement": "glucose uptake by 3T3-LI adipocytes", "setting": "3T3-LI adipocytes", "value": "stimulated increased glucose uptake"}]}, {"compound": "HLGLEEPKK [SEQ ID NO: 10]", "values": [{"measurement": "glucose uptake by 3T3-LI adipocytes", "setting": "3T3-LI adipocytes", "value": "stimulated increased glucose uptake"}]}, {"compound": "KHHLGLEEPKKLR [SEQ ID NO: 1]", "values": [{"measurement": "glucose uptake by 3T3-LI adipocytes", "setting": "3T3-LI adipocytes", "value": "stimulated increased glucose uptake"}, {"measurement": "body weight and fat accumulation", "setting": "mice", "value": "decrease body weight and fat accumulation"}, {"measurement": "glucose tolerance", "setting": "mice", "value": "no effect on glucose tolerance"}]}]}
